Laboratory results: patent US20220008368A1, “METHODS AND COMPOSITIONS RELATED TO TARGETING FFAR2 AND ILC3 POPULATIONS FOR THE TREATMENT OF A GASTROINTESTINAL DISEASE” (PRESIDENT AND FELLOWS OF HARVARD COLLEGE, priority 2018, published 2022)
Like-named read-outs stand apart in the source and are kept apart here. *1 amine or outer side, *2 acyl side, *3 side chain or, on linkers, in order; H or OH if unused. Where a SMILES comes first, the peptide text is derived from it. Bridges are numbered along the chain shown (N, C = ends). [ ]: non-standard residue; d: D form. X1 = CC(=O)NC(C(=O)OC(C(C)C)C(N[*:1])C(=O)[*:2])C(O)C(C)C; PhLac = O=C(O)[CH](O)Cc1ccccc1; NMeT = CN[CH](C(=O)O)[CH](C)O; NMeA = CN[CH](C)C(=O)O; NMeDha = C=C(NC)C(=O)O

Key:
sorted colonic ILC3s [1] = test: Flow analysis of intracellular signaling (AKT, p38, ERK, STAT3 phosphorylation) in sorted colonic ILC3s from WT mice; assay type: cell-based, mouse
Method: For analysis of intracellular signaling in ILC3s (Ibiza et al., 2016), sorted colonic ILC3s were rested for 2 hours in RPMI at 37° C.
AKT and STAT3 inhibition. Sorted colonic ILC3s were rested for 2 hours in RPMI at 37° C. For analysis of STAT3 phosphorylation, cells were incubated with […] AKT inhibitor VIII (VIII, Sigma-Aldrich) (Ibiza et al., 2016) or vehicle as a control (DMSO) for 1h at 37° C. before stimulation with the Ffar2 agonist (10 μM/ml dissolved in water, pH 7.4). To determine Il22 expression levels, cells were incubated with 10 μM AKT inhibitor VIII, 10 μM STAT3 inhibitor VI (S3I, Sigma-Aldrich) (Ibiza et al., 2016) or vehicle during overnight stimulation with Ffar2 agonist at 37° C.

sorted colonic ILC3s [2] = test: Il22 mRNA expression in sorted colonic ILC3s (qRT-PCR); assay type: cell-based, mouse; settings: for Il22 expression upon Ffar2 activation with the Ffar2 agonist: overnight with Ffar2 agonist, AKT inhibitor VIII 10 μM, STAT3 inhibitor 10 μM
Method: RNA isolation and real-time quantitative PCR (qRT-PCR). For analysis of sorted colonic immune cell populations including ILC subsets and colonic ILC3s, RNA was isolated using the RNeasy Micro Kit (Qiagen) or RNeasy Mini Kit (Qiagen) according to the manufacturer's protocol. For analysis of colonic epithelial cells or colon tissues, cells or tissues were homogenized directly into Qiazol (Qiagen), and RNA was isolated via chloroform extraction. The quantity and quality of RNA was determined using a NanoDrop (Thermo Scientific). […] Quantitative real-time PCR was carried out on cDNA with SYBR FAST Universal qPCR Master Mix (KAPA Biosystems). Reactions were run on a Stratagene Mx3005P machine (Agilent Technologies). The expression of individual genes was normalized to housekeeping gene β-actin expression on the base of the ΔΔCt algorithm. Some results are shown as a fold induction relative to expression levels in colonic epithelial cells as indicated. AKT and STAT3 inhibition.

colonic ILC3s [3] = test: Colonic RORγt+ ILC3s in germ-free WT mice fed Ffar2 agonist or sodium acetate; assay type: in vivo, mouse; settings: Ffar2 agonist 700 μM or sodium acetate 150 mM in drinking water, 1-2 weeks
Method: GPR43 agonist. […] SCFA intervention. […] WT mice received sodium chloride (150 mM). […] Flow cytometry.

sorted colonic ILC3s [4] = test: In vitro BrdU incorporation in sorted colonic ILC3s; assay type: cell-based, mouse; settings: acetate 10 mM or propionate 10 mM with BrdU 10 μM overnight
colonic ILC3s [5] = settings: WT mice, drinking water 2 weeks; acetate 150 mM, propionate 150 mM, butyrate 100 mM; control sodium chloride
Method: SCFA intervention. […] WT mice received sodium chloride (150 mM). […] Drinking water solutions were freshly prepared and changed every 5 days.
Isolation of colonic epithelial cells and immune cells. Colons were dissected and fat and blood vessels were removed. Colons were cut open longitudinally and washed with PBS to remove feces and debris, then incubated in PBS containing 5 mM EDTA, 0.145 mg/ml Dithiothreitol (Sigma-Aldrich), 3% FBS and 1% penicillin/streptomycin (P/S) for 15 min at 37° C. for 2 cycles. After being vortexed for 15s, the dissociated cells were collected as colonic epithelial cells. For the isolation of lamina propria immune cells, the remaining colonic tissues were washed twice in PBS, cut into 1 mm in length, and digested in RPMI 1640 containing 0.5 mg/ml collagenase D (Roche), 0.01 mg/ml DNase I (Roche), and 0.5 mg/ml Dispase (Stem Cell Technologies) for 30 min at 37° C. on a shaking platform. The digested tissues were passed through 70 μm strainers after being vigorously vortexed for 15s. Then, colonic immune cells were collected and resuspended in PBS with 1% fetal bovine serum and 1% penicillin-streptomycin solution (Corning) for flow cytometry analysis, FACSAria sorting or RNA extraction.
Flow cytometry. Single-cell suspensions were stained with a combination of fluorescently conjugated monoclonal antibodies. CD16/32 antibody (93; BioLegend) was used to block the non-specific binding to Fc receptors before surface staining. Cells were stained with Fixable yellow dead cell stain kit (Invitrogen) for the detection of live/dead cells before staining of the cell surface. All antibodies were purchased from BioLegend unless otherwise specified. For surface marker staining, antibodies to the following mouse proteins were used: CD45 (30-F11), CD90.2 (53-2.1), lineage markers (17A2/RB6-8C5/RA3-6B2/Ter-119/M1/70), CCR6 (29-21.17), NKp46 (29A1.4), CD11b (M1/70), CD11c (N418), Gr-1 (RB6-8C5), MHC class II (M5/114.15.2), NK1.1 (PK136), KLRG1 (2F1), CD3c (145-2C11), CD4 (RM4.5). […]

Ffar2 = molecular target: T1, Ffar2 (Homo sapiens, UniProt O15552); settings: cited from earlier work; for agonism of Ffar2 among SCFAs: compared among acetate, propionate and butyrate
T1 sequence (O15552 1-330): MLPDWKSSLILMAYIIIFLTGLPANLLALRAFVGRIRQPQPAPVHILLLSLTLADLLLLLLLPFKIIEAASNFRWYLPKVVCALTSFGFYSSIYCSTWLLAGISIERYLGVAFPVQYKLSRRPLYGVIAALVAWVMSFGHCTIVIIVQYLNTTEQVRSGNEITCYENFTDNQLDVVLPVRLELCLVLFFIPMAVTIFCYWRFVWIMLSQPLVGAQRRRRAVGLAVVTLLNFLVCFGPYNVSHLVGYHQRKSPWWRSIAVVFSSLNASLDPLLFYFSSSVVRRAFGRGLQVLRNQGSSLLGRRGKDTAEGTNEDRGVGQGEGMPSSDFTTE

Peyer's patch ILC3s = settings: cited from earlier work
C57BL/6 Rag2−/− mice = test: T cell-transfer colitis model; assay type: in vivo, mouse; settings: Ffar2 agonist or sodium propionate for 6 weeks
Method: GPR43 agonist. […] SCFA intervention. […] WT mice received sodium chloride (150 mM). […] Histology. Colons were cleaned with PBS prior to fixation in 4% PFA and then processed by routine paraffin embedding, sectioning and H&E staining. Colitis scores were determined by a pathologist (J. N. G.), who was blinded to the experimental parameters. Each of the four histologic parameters was scored as absent (0), mild (1), moderate (2), or severe (3): mononuclear cell infiltration, polymorphonuclear cell infiltration, epithelial hyperplasia, and epithelial injury. The scores for the parameters were summed to generate the cumulative histologic colitis score as previously described^60, 61. For the DSS-induced model, cumulative histologic scores were also quantified as to the percentage involvement by the disease process: […] (3) 30-50%; (4) >50% and presented as histologic colitis scores^62 as follows: (cumulative score*involvement)+cumulative score. T cell-transfer colitis model. Splenic T cells (CD3^+CD4^+CD25^-CD45RB^hi) were sorted from C57BL/6J WT mice and injected i.p. into C57BL/6J Rag2^-/- mice (5×10^5 cells/mouse). […] Mice were monitored weekly for weight loss and morbidity for 6-8 weeks as per the protocol's experimental endpoint guidelines and sacrificed at the terminal time point of 6 weeks post injection of splenic […].

[6] = WT ILC3s, propionate 10 mM, 1 h

## O=c1[nH]c2ccccc2n1C1CCN(Cc2ccc(-c3nc4cc5[nH]cnc5cc4nc3-c3ccccc3)cc2)CC1 [AKT inhibitor (VIII)]
Sorted colonic ILC3s [1]; AKT inhibitor VIII 1 h before stimulation with Ffar2 agonist
  STAT3 activation upon Ffar2 activation with the Ffar2 agonist: impaired
Sorted colonic ILC3s [2]; PTX 500 ng/mL, YM-254890 1 mM
  Il22 expression upon Ffar2 activation with the Ffar2 agonist: decreased 11-22, but to a lesser extent

## Cc1ccc(S(=O)(=O)OCC(=O)Nc2ccc(C(=O)O)c(O)c2)cc1 [STAT3 inhibitor (S31)]
Sorted colonic ILC3s [2]; PTX 500 ng/mL, YM-254890 1 mM
  Il22 expression upon Ffar2 activation with the Ffar2 agonist: impaired
Sorted colonic ILC3s [2]; PTX 500 ng/mL, YM-254890 1 mM, listed as STAT3 inhibitor
  Il22 expression upon Ffar2 activation with the Ffar2 agonist: decreased

## C=C1C(=O)NC(C)C(=O)N(C)C(C)C(=O)NC(C(OC(=O)C(NC(C)=O)C(O)C(C)C)C(C)C)C(=O)N(C)C(C(C)OC)C(=O)OC(C)C(NC(C)=O)C(=O)OC(Cc2ccccc2)C(=O)N1C (stereo not drawn) [YM-254890] (Ac-T[PhLac][NMeDha]A[NMeA][X1][NMeT](Me); ester 1-C; configuration not given here)
Sorted colonic ILC3s [2]; PTX 500 ng/mL, YM-254890 1 mM
  Il22 expression upon Ffar2 activation with the Ffar2 agonist: abolished
Sorted colonic ILC3s [2]; propionate 10 mM overnight, PTX 500 ng/mL, YM-254890 1 mM, ERK inhibitor 10 μM
  Il22 expression upon activation with propionate: decreased IL22 transcripts to a lesser extent

## CC(=O)[O-].[Na+] [sodium acetate]
Colonic ILC3s [3]
  colonic ILC3 numbers: increased
Sorted colonic ILC3s [2]
  Il22 mRNA expression in sorted ILC3s cultured with ligand: did not alter
Sorted colonic ILC3s [4]
  percentage of BrdU+ ILC3s: increased
Colonic ILC3s [5]
  colonic ILC3 frequency and number: increased
Ffar2
  agonism of Ffar2 among SCFAs: far more potent activators of Ffar2

## CCCC(=O)[O-].[Na+] [sodium butyrate]
Colonic ILC3s [5]
  colonic ILC3 frequency and number: did not change
Peyer's patch ILC3s
  effect on Peyer's patch ILC3s: suppress

## CCC(=O)[O-].[Na+] [sodium propionate]
C57BL/6 Rag2−/− mice
  colitis (histologic colitis score): ameliorated colitis similar to the effect of sodium propionate
Sorted colonic ILC3s [1]; WT ILC3s, propionate 10 mM, 30 min
  phosphorylation of AKT, p38, ERK and STAT3: did not induce
Sorted colonic ILC3s [1]; [6]
  pSTAT3+ ILC3s: did increase
  share of ILC3s that were pSTAT3+: 1%-1.5%
Sorted colonic ILC3s [1]; WT ILC3s, propionate 10 mM, 1 h compared with shorter time
  percentage of pERK+ ILC3s: comparable
Sorted colonic ILC3s [1]; WT ILC3s, propionate 10 mM, 1 h versus 30 min
  pERK level: did induce a higher pERK
Sorted colonic ILC3s [2]; acetate 10 mM, propionate 10 mM or Ffar2 agonist 10 mM
  Il22 mRNA expression in sorted ILC3s cultured with ligand: to a lesser extent, propionate increased
Sorted colonic ILC3s [4]
  percentage of BrdU+ ILC3s: did not
Colonic ILC3s [5]
  colonic ILC3 frequency and number: increased
Ffar2
  potency for Ffar2 compared with the synthetic Ffar2 agonist: lower potency
  agonism of Ffar2 among SCFAs: far more potent activators of Ffar2
